# Data from US12686691B2, “Crystalline form of SHP2 inhibitor, and composition thereof, preparation method therefor, and use thereof” (ETERN BIOPHARMA (SHANGHAI) CO., LTD., priority 2020, dated 2026).
# How the values were obtained:
# Type in all cases: physicochemical
# [1] = Variable temperature XRPD (heating under nitrogen protection, XRPD after cooling)
# Procedure: (§1) Instruments and Experimental Conditions Used in the Example • 1. Differential Scanning Calorimeter, DSC • Instrument model: Mettler Toledo DSC3+Stare e System • Purge gas: nitrogen (50 mL/min) • Ramping rate: 10.0° C./min • Temperature range: 20-250° C. • 2. X-Ray Powder Diffraction, XRPD • Instrument model: Rigaku UltimalV X-ray powder diffractometer • Ray: monochromatic Cu—Kα ray (λ=1.5418 Å) • Scanning mode: θ/2θ, scanning range: 3-45° • Voltage: 40 kV, current: 40 mA • 3. Thermogravimetric Analysis, TGA • Instrument model: Mettler Toledo TGA2STAR eSystem • Purge gas: nitrogen • Ramping rate: 10.0° C./min • Temperature range: 20-250° C. • 4. Dynamic Vapour Sorption, DVS • Instrument model: TAQ5000VSA • Temperature: 25° C. • Solvent: water • Humidity change: 0-95-0-95-0% RH, step by 10%, less than 0.01% of mass change within […] as the judging standard • 4. HPLC Method • Instrument model: Agilent 1100 with VWD detector • Columns: poroshell 120 EC C18, 3.0 mm/50 mm/2.7 μm • Mobile phase: A: 0.03% NH4OH (25%~28%) in water • B: 0.03% NH4OH (25%~28%) in acetonitrile
# The crystalline form A of Compound 1 was placed under nitrogen protection and heated to different temperatures (30° C., 92° C., 118° C., 132° C. and 175° C., respectively), then subjected to XRPD test after it was cooled.
# The crystalline form B of Compound 1 was placed under nitrogen protection and heated to different temperatures (130° C. and 180° C., respectively), then subjected to XRPD test after it was cooled to room temperature.
# The crystalline form C of Compound 1 was placed under nitrogen protection and heated to different temperatures (130° C. and 160° C., respectively), then subjected to XRPD test after it was cooled to room temperature.
# The crystalline form D of Compound 1 was placed under nitrogen protection and heated to different temperatures (100° C. and 160° C., respectively), then subjected to XRPD test after it was cooled to room temperature.
# The crystalline form E of Compound 1 was placed under nitrogen protection and heated to different temperatures (96° C. and 180° C., respectively), then subjected to XRPD test after it was cooled to room temperature.
# [2] = Stability investigation of the crystalline form A (placement under temperature/humidity, XRPD and HPLC); settings: for Crystalline form change: XRPD; for HPLC purity initial: before placement
# Procedure: as §1
# • Mobile Phase Flow Rate: 1.0 mL/min • Run time: 10.0 min • Injection volume: 2 μL • Detecting wavelength: UV, 254 nm • Column temperature: 25° C. • Injector temperature: RT • Diluent: acetonitrile:water=1:1 (v:v)
# The crystalline form A of Compound 1 was placed under 60° C./closed condition for 24 hours, under 25° C./60% RH and 40° C./75% RH in an open state for one week, respectively. The physical and chemical stability of the sample was detected by XRPD and HPLC.
# [3] = DVS hygroscopicity test
# Procedure: as §1
# Hygroscopicity of the crystalline form A of Compound 1 was evaluated by DVS test.
# [4] = heated to 130° C. under nitrogen
# [5] = heated to 180° C. under nitrogen
# [6] = heated to 160° C. under nitrogen
# [7] = 40° C./75% RH, 1 week, open state
smiles,measurement,setting,value
"Nc1nccc(Sc2cnc(N3CCC4(CC3)Cc3ncccc3[C@H]4N)n3ccnc23)c1Cl [crystalline form B, (S)-1′-(8-((2-amino-3-chloropyridin-4-yl)thio)imidazo[1,2-c]pyrimidin-5-yl)-5,7-dihydrospiro[cyclopentadieno[b]pyridine-6,4′-piperidine]-5-amine]",crystalline form after heating and cooling to room temperature,[1]; [4],converted into an amorphous form
same,crystalline form after heating and cooling to room temperature,[1]; [5],converted to the crystalline form A
"Nc1nccc(Sc2cnc(N3CCC4(CC3)Cc3ncccc3[C@H]4N)n3ccnc23)c1Cl [crystalline form C, (S)-1′-(8-((2-amino-3-chloropyridin-4-yl)thio)imidazo[1,2-c]pyrimidin-5-yl)-5,7-dihydrospiro[cyclopentadieno[b]pyridine-6,4′-piperidine]-5-amine]",crystalline form after heating and cooling to room temperature,[1]; [4],converted into an amorphous form
same,crystalline form after heating and cooling to room temperature,[1]; [6],converted to the crystalline form A
"Nc1nccc(Sc2cnc(N3CCC4(CC3)Cc3ncccc3[C@H]4N)n3ccnc23)c1Cl [crystalline form D, (S)-1′-(8-((2-amino-3-chloropyridin-4-yl)thio)imidazo[1,2-c]pyrimidin-5-yl)-5,7-dihydrospiro[cyclopentadieno[b]pyridine-6,4′-piperidine]-5-amine]",crystalline form after heating and cooling to room temperature,[1]; heated to 100° C. under nitrogen,crystallinity was significantly reduced
same,crystalline form after heating and cooling to room temperature,[1]; [6],diffraction signal of the crystalline form A is observed
"Nc1nccc(Sc2cnc(N3CCC4(CC3)Cc3ncccc3[C@H]4N)n3ccnc23)c1Cl [crystalline form A, (S)-1′-(8-((2-amino-3-chloropyridin-4-yl)thio)imidazo[1,2-c]pyrimidin-5-yl)-5,7-dihydrospiro[cyclopentadieno[b]pyridine-6,4′-piperidine]-5-amine]",crystalline form change during heating,"[1]; heated to 30° C., 92° C., 118° C., 132° C. and 175° C. under nitrogen, XRPD after cooling",no crystalline form change
same,HPLC purity After placement,"[2]; 25° C./60% RH, 1 week",97.99 area %
same,HPLC purity Relative to initial,"[2]; 25° C./60% RH, 1 week",99.6%
same,Crystalline form change,"[2]; 25° C./60% RH, 1 week",no crystalline form change
same,Crystalline form change,"[2]; 25° C./60% RH, 1 week, listed as Crystalline form A",no
same,HPLC purity After placement,[2]; [7],97.89 area %
same,HPLC purity Relative to initial,[2]; [7],99.5%
same,Crystalline form change,[2]; [7],only part of crystalline form A was converted to hydrate crystalline form B
same,Crystalline form change,"[2]; 40° C./75% RH, 1 week, open state, listed as Crystalline form A",yes
same,HPLC purity After placement,"[2]; 60° C./closed, 24 hours",98.55 area %
same,HPLC purity Relative to initial,"[2]; 60° C./closed, 24 hours",99.9%
same,Crystalline form change,"[2]; 60° C./closed, 24 hours",no crystalline form change
same,Crystalline form change,"[2]; 60° C./closed, 24 hours, listed as Crystalline form A",no
same,chemical stability (HPLC),[2]; all three stability test conditions,good chemical stability
same,purity maintained after placement (HPLC),"[2]; all three stability test conditions (25° C./60% RH 1 week, 40° C./75% RH 1 week, 60° C./closed 24 hours)",about 98%
same,HPLC purity initial,[2]; sample of the 25° C./60% RH and 40° C./75% RH 1 week tests,98.41 area %
same,HPLC purity initial,[2]; sample of the 60° C./closed 24 hours test,98.60 area %
same,stability (overall conclusion of the stability investigation),[2]; conclusion from Examples 1.67 and 1.68,excellent stability
same,weight gain of moisture absorption,"[3]; DVS, 80.0% RH, 25° C.",1.88%
same,hygroscopicity,"[3]; DVS, judged from weight gain at 80.0% RH",slight hygroscopicity
same,crystalline form before and after DVS test (XRPD),[3]; XRPD before and after DVS,consistent
"Nc1nccc(Sc2cnc(N3CCC4(CC3)Cc3ncccc3[C@H]4N)n3ccnc23)c1Cl [crystalline form E, (S)-1′-(8-((2-amino-3-chloropyridin-4-yl)thio)imidazo[1,2-c]pyrimidin-5-yl)-5,7-dihydrospiro[cyclopentadieno[b]pyridine-6,4′-piperidine]-5-amine]",crystalline form after heating and cooling to room temperature,[1]; heated to 96° C. under nitrogen,a small amount of diffraction signal of the crystalline form A is observed
same,crystalline form after heating and cooling to room temperature,[1]; [5],completely converted to the crystalline form A
